Active and inactive are the calls of the source. How the calls were made is not given here.
Test system: rodent carcinogenicity bioassays, tumor incidence
Test: CCRIS carcinogenicity studies
Outline: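 Archive of carcinogenicity, mutagenicity, tumor promotion and tumor inhibition results drawn from journals, NCI reports and other sources, expert-reviewed; covers 1985-2011 and is no longer updated.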

`Nc1ccc([N+](=O)[O-])cc1O` was tested, and the carcinogen call (Species: MOUSE, Strain/Sex: B6C3F1/FEMALE, Route: GAVAGE, Dose: 0, 400, 800 MG/KG IN CORN OIL 5D/WK FOR 103 WK (STUDY DURATION: 105 WK), Dose: 0, 400, 800 MG/KG IN CORN OIL 5D/WK FOR 103 WK (STUDY DURATION: 105 WK)) was “inactive; negative”, the carcinogen call (Species: MOUSE, Strain/Sex: B6C3F1/MALE, Route: GAVAGE, Dose: 0, 400, 800 MG/KG IN CORN OIL 5D/WK FOR 103 WK (STUDY DURATION: 105 WK), Dose: 0, 400, 800 MG/KG IN CORN OIL 5D/WK FOR 103 WK (STUDY DURATION: 105 WK)) was “inactive; negative” and the carcinogen call (Species: RAT, Strain/Sex: F344/FEMALE, Route: GAVAGE, Dose: 0, 100, 200 MG/KG IN CORN OIL 5D/WK FOR 103 WK (STUDY DURATION: 105 WK), Dose: 0, 100, 200 MG/KG IN CORN OIL 5D/WK FOR 103 WK (STUDY DURATION: 105 WK)) was “inactive; negative”. For the same compound, the carcinogen call (Species: RAT, Strain/Sex: F344/MALE, Route: GAVAGE, Dose: 0, 100, 200 MG/KG IN CORN OIL 5D/WK FOR 103 WK (STUDY DURATION: 105 WK), Dose: 0, 100, 200 MG/KG IN CORN OIL 5D/WK FOR 103 WK (STUDY DURATION: 105 WK), Tumor Site: Type of Lesion: PANCREAS: ACINAR CELL ADENOMA, PANCREAS: ACINAR CELL ADENOMA OR CARCINOMA) was “active; positive”.
For `CCCN(CCC)N=O`, the carcinogen call (Species: HAMSTER, Route: SUBCUTANEOUS, Tumor Site: Type of Lesion: RESPIRATORY TRACT, LUNG) was “active; positive”, the carcinogen call (Species: RAT, Route: ORAL, Tumor Site: Type of Lesion: LIVER) was “active; positive” and the carcinogen call (Species: RAT, Route: SUBCUTANEOUS, Tumor Site: Type of Lesion: NASAL CAVITY, LIVER) was “active; positive”.
In the case of `COc1ccc2c3c1O[C@H]1[C@@H](O)C=C[C@H]4[C@@H](C2)N(C)CC[C@@]341`, the carcinogen call (Species: MOUSE, Strain/Sex: B6C3F1/FEMALE, Route: ORAL, Dose: 0, 750, 1500, 3000 PPM IN DIET FOR UP TO 106 WK (STUDY DURATION: 106 WK), Dose: 0, 750, 1500, 3000 PPM IN DIET FOR UP TO 106 WK (STUDY DURATION: 106 WK)) is reported as “inactive; negative”, the carcinogen call (Species: MOUSE, Strain/Sex: B6C3F1/MALE, Route: ORAL, Dose: 0, 750, 1500, 3000 PPM IN DIET FOR UP TO 106 WK (STUDY DURATION: 106 WK), Dose: 0, 750, 1500, 3000 PPM IN DIET FOR UP TO 106 WK (STUDY DURATION: 106 WK)) is reported as “inactive; negative” and the carcinogen call (Species: RAT, Strain/Sex: F344/FEMALE, Route: ORAL, Dose: 0, 400, 800, 1600 PPM IN DIET FOR UP TO 106 WK (STUDY DURATION: 106 WK), Dose: 0, 400, 800, 1600 PPM IN DIET FOR UP TO 106 WK (STUDY DURATION: 106 WK)) is reported as “inactive; negative”. The carcinogen call (Species: RAT, Strain/Sex: F344/MALE, Route: ORAL, Dose: 0, 400, 800, 1600 PPM IN DIET FOR UP TO 106 WK (STUDY DURATION: 106 WK), Dose: 0, 400, 800, 1600 PPM IN DIET FOR UP TO 106 WK (STUDY DURATION: 106 WK)) was “inactive; negative”.
In the case of `O=S1(=O)CC=CC1`, the carcinogen call (Species: MOUSE, Strain/Sex: B6C3F1/FEMALE, Route: GAVAGE, Dose: 0, 384, 768 MG/KG, Dose: 0, 384, 768 MG/KG) is reported as “inactive; negative”, the carcinogen call (Species: MOUSE, Strain/Sex: B6C3F1/MALE, Route: GAVAGE, Dose: 0, 311, 622 MG/KG, Dose: 0, 311, 622 MG/KG) is reported as “inactive; negative” and the carcinogen call (Species: RAT, Strain/Sex: OSBORNE-MENDEL/FEMALE, Route: GAVAGE, Dose: 0, 120, 240 MG/KG, Dose: 0, 120, 240 MG/KG) is reported as “inactive; negative”. For the same compound, the carcinogen call (Species: RAT, Strain/Sex: OSBORNE-MENDEL/MALE, Route: GAVAGE, Dose: 0, 197, 372 MG/KG, Dose: 0, 197, 372 MG/KG) was “inactive; negative”.
With `CC1(c2ccc(Oc3ccccc3)cc2)OC(=O)N(Nc2ccccc2)C1=O` (stereo unspecified) the carcinogen call (Species: Mouse, Strain/Sex: CRL: CD1 (ICR)BR/Female (60/Group), Route: Oral, Dose: 0, 1.0, 9.8, 130, 392 mg/kg/day of 97.4% famoxadone in diet for 18 mo, study duration 18 mo, Dose: 0, 1.0, 9.8, 130, 392 mg/kg/day of 97.4% famoxadone in diet for 18 mo, study duration 18 mo) was “inactive; negative”, the carcinogen call (Species: Mouse, Strain/Sex: CRL: CD1 (ICR)BR/Male (60/Group), Route: Oral, Dose: 0, 0.7, 6.8, 96, 274 mg/kg/day of 97.4% famoxadone in diet for 18 mo, study duration 18 mo, Dose: 0, 0.7, 6.8, 96, 274 mg/kg/day of 97.4% famoxadone in diet for 18 mo, study duration 18 mo) was “inactive; negative” and the carcinogen call (Species: Rat, Strain/Sex: CRL: CD BR/Female (62/Group), Route: Oral, Dose: 0, 0.53, 2.15, 10.7, 23.0 mg/kg/day of 97.4% famoxadone in diet for 24 mo, study duration 24 mo, Dose: 0, 0.53, 2.15, 10.7, 23.0 mg/kg/day of 97.4% famoxadone in diet for 24 mo, study duration 24 mo) was “inactive; negative”. For the same compound, the carcinogen call (Species: Rat, Strain/Sex: CRL: CD BR/Male (62/Group), Route: Oral, Dose: 0, 0.42, 1.62, 8.4, 16.8 mg/kg/day of 97.4% famoxadone in diet for 23 mo, study duration 23 mo, Dose: 0, 0.42, 1.62, 8.4, 16.8 mg/kg/day of 97.4% famoxadone in diet for 23 mo, study duration 23 mo) was “inactive; negative”.
In the case of `Clc1cnc(Oc2ccc(Oc3ncc(Cl)cc3Cl)cc2)c(Cl)c1`, the carcinogen call (Species: MOUSE, Strain/Sex: C57BL/MALE, Route: INTRAGASTRIC, Dose: 0, 3 MG/KG BW IN CORN OIL 1/2 WK FOR 24 WK (STUDY DURATION: 55 WK), Tumor Site: Type of Lesion: LIVER: HEPATOCELLULAR ADENOMA OR CARCINOMA) is reported as “active; positive”, the carcinogen call (Species: MOUSE, Strain/Sex: C57BL/MALE, Route: INTRAPERITONEAL, Dose: 0, 3 MG/KG BW IN CORN OIL 1/2 WK FOR 24 WK (STUDY DURATION: 55 WK), Tumor Site: Type of Lesion: LIVER: HEPATOCELLULAR ADENOMA OR CARCINOMA) is reported as “active; positive” and the carcinogen call (Species: MOUSE, Strain/Sex: DBA/MALE, Route: INTRAGASTRIC, Dose: 0, 3 MG/KG BW IN CORN OIL 1/2 WK FOR 24 WK (STUDY DURATION: 55 WK)) is reported as “active; positive”. The carcinogen call (Species: MOUSE, Strain/Sex: DBA/MALE, Route: INTRAPERITONEAL, Dose: 0, 3 MG/KG BW IN CORN OIL 1/2 WK FOR 24 WK (STUDY DURATION: 55 WK), Tumor Site: Type of Lesion: LIVER: HEPATOCELLULAR ADENOMA OR CARCINOMA) was “active; positive”, the carcinogen call (Species: RAT, Strain/Sex: F344/MALE, Route: INTRAGASTRIC, Dose: 0, 30 MG/KG IN CORN OIL 1/2 WK FOR 71 WK (STUDY DURATION: 73 WK)) was “inactive; negative” and the carcinogen call (Species: RAT, Strain/Sex: F344/MALE, Route: INTRAPERITONEAL, Dose: 0, 30 MG/KG IN CORN OIL 1/2 WK FOR 71 WK (STUDY DURATION: 73 WK)) was “inactive; negative”.
`O=[N+]([O-])c1cc([As](=O)(O)O)ccc1O` was tested, and the carcinogen call (Species: MOUSE, Strain/Sex: B6C3F1/FEMALE, Route: ORAL, Dose: 0, 100, 200 PPM IN FEED FOR 103 WK (STUDY DURATION: 105 WK), Dose: 0, 100, 200 PPM IN FEED FOR 103 WK (STUDY DURATION: 105 WK)) was “inactive; negative”, the carcinogen call (Species: MOUSE, Strain/Sex: B6C3F1/MALE, Route: ORAL, Dose: 0, 100, 200 PPM IN FEED FOR 103 WK (STUDY DURATION: 105 WK), Dose: 0, 100, 200 PPM IN FEED FOR 103 WK (STUDY DURATION: 105 WK)) was “inactive; negative” and the carcinogen call (Species: RAT, Strain/Sex: F344/FEMALE, Route: ORAL, Dose: 0, 50, 100 PPM IN FEED FOR 103 WK (STUDY DURATION: 104 WK), Dose: 0, 50, 100 PPM IN FEED FOR 103 WK (STUDY DURATION: 104 WK)) was “inactive; negative”. For the same compound, the carcinogen call (Species: RAT, Strain/Sex: F344/MALE, Route: ORAL, Dose: 0, 50, 100 PPM IN FEED FOR 103 WK (STUDY DURATION: 104 WK), Dose: 0, 50, 100 PPM IN FEED FOR 103 WK (STUDY DURATION: 104 WK), Tumor Site: Type of Lesion: EXOCRINE PANCREAS: ADENOMA) was “equivocal”.
For `FC(Cl)C(F)(F)F` (stereo unspecified), the carcinogen call (Species: RAT, Strain/Sex: CRL:CD/FEMALE, Route: INHALATION, Dose: 0, 2000, 10,000, 50,000 PPM 6 HR/D 5 D/WK FOR 2 YR (STUDY DURATION: 2 YR), Dose: 0, 2000, 10,000, 50,000 PPM 6 HR/D 5 D/WK FOR 2 YR (STUDY DURATION: 2 YR)) was “inactive; negative” and the carcinogen call (Species: RAT, Strain/Sex: CRL:CD/MALE, Route: INHALATION, Dose: 0, 2000, 10,000, 50,000 PPM 6 HR/D 5 D/WK FOR 2 YR (STUDY DURATION: 2 YR), Dose: 0, 2000, 10,000, 50,000 PPM 6 HR/D 5 D/WK FOR 2 YR (STUDY DURATION: 2 YR)) was “inactive; negative”.

From PubChem BioAssay AID1259411 (Chemical Carcinogenesis Research Information System (CCRIS), 2018)
